Our source for the EC50 values is patent US10233195B2, “Anti-fibrotic pyridinones” (InterMune, Inc., priority 2014, dated 2019).

The structures appear in SMILES notation.

The subject of this assay is TGF-b induced Endothelin-1 production. The experiment in a line: ET-1 assay: inhibitory effect on TGF-b induced endothelin-1 production. Format: cell-based. To be noted: Homo sapiens, Fibroblast; fibroblasts, stimulant (TGFb, serum, LPA etc), ET-1 in media by ELISA, 4-parameter fit. In outline: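 Fibroblasts (primary human lung/dermal, HFL-1, 3T3) serum-starved 0-48 h, preincubated ~30 min with compound, then stimulated (TGFb, serum or LPA) for 16-48 h. Secreted ET-1 measured by ELISA; EC50 from 4-parameter logistic fit, with CC50 from ATPlite in the same wells.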
On the technique in general: ELISA stands for enzyme-linked immunosorbent assay.
`O=c1ccc(-c2ccc(F)cc2)cn1-c1ccccc1Cl` [Compound 291]: the concentration for a half-maximal effect (EC50) (as a rule, the concentration giving half of the maximal effect) is greater than 200 µM.
`O=c1ccc(-c2ccccc2)cn1-c1ccc(F)cc1` [Compound 294] had an EC50 of 50 to 200 µM.
As for `O=c1ccc(-c2ccccc2)cn1-c1cccc(F)c1` [Compound 296], the figure is greater than 200 µM; as for `CCOc1ccc(-n2cc(-c3ccccc3)ccc2=O)c(C)c1` [Compound 298], 50 to 200 µM.
For `O=c1ccc(-c2ccccc2)cn1-c1ccncc1` [Compound 299], the EC50 was greater than 200 µM.
With `O=c1ccc(-c2ccccc2)cn1-c1ccccc1Cl` [Compound 302], the concentration for a half-maximal effect (EC50) fell in the range of 50 to 200 µM.
Turning to `COc1ccc(-c2ccc(=O)n(-c3ccc(Cl)cc3)c2)cc1` [Compound 303], the 50% effective concentration (EC50) was in the range of 50 to 200 µM.
`COc1ccc(-c2ccc(=O)n(-c3cccc(OC)c3)c2)cc1` [Compound 309]: the EC50 was in the range of 50 to 200 µM.
As for `COc1ccc(-c2ccc(=O)n(-c3ccccc3Cl)c2)cc1` [Compound 310], the figure is 50 to 200 µM.
Take `COc1ccc(-c2ccc(=O)n(-c3cncnc3)c2)cc1` [Compound 311]: the EC50 was greater than 200 µM.
Consider `COc1ccc(-c2ccc(=O)n(-c3ccccc3F)c2)cc1` [Compound 312], for which the EC50 is greater than 200 µM.
Turning to `O=c1ccc(-c2cccc(Cl)c2)cn1-c1ccccc1` [Compound 313], the EC50 lay in the range of 50 to 200 µM.
The molecule `O=c1ccc(-c2cccc(Cl)c2)cn1-c1ccc(Cl)cc1` [Compound 314] returned an EC50 of less than 50 µM.
On to `COc1ccc(-n2cc(-c3cccc(Cl)c3)ccc2=O)cc1` [Compound 315], for which the EC50 is less than 50 µM.
The figure for `O=c1ccc(-c2cccc(Cl)c2)cn1-c1cccc(C(F)(F)F)c1` [Compound 318] is less than 50 µM; for `COc1cccc(-n2cc(-c3cccc(Cl)c3)ccc2=O)c1` [Compound 319] it is less than 50 µM; for `O=c1ccc(-c2cccc(Cl)c2)cn1-c1cccc(F)c1` [Compound 320] it is less than 50 µM.
The figure for `CCOc1ccc(-n2cc(-c3cccc(Cl)c3)ccc2=O)c(C)c1` [Compound 321] is less than 50 µM; for `O=c1ccc(-c2cccc(Cl)c2)cn1-c1ccccc1Cl` [Compound 322] it is less than 50 µM.
`O=c1ccc(-c2cccc(Cl)c2)cn1-c1ccncc1` [Compound 323] showed an EC50 greater than 200 µM.
As for `O=c1ccc(-c2cccc(Cl)c2)cn1-c1ccccc1F` [Compound 324], the concentration giving a half-maximal response (EC50) was in the range of 50 to 200 µM.
`NS(=O)(=O)c1ccc(-c2ccc(=O)n(-c3ccc(Cl)cc3)c2)cc1` [Compound 327] showed an EC50 greater than 200 µM.
The molecule `COc1ccc(-n2cc(-c3ccc(S(N)(=O)=O)cc3)ccc2=O)cc1` [Compound 328] had an EC50 greater than 200 µM.
The molecule `NS(=O)(=O)c1ccc(-c2ccc(=O)n(-c3cccc(C(F)(F)F)c3)c2)cc1` [Compound 329] displayed an EC50 greater than 200 µM.
Regarding `CC(C)Oc1ccc(-n2cc(-c3ccc(S(N)(=O)=O)cc3)ccc2=O)cc1` [Compound 330], the EC50 is greater than 200 µM.
`COc1cccc(-n2cc(-c3ccc(S(N)(=O)=O)cc3)ccc2=O)c1` [Compound 331] gave an EC50 greater than 200 µM.
In turn, `COc1ccc(-n2cc(C)ccc2=S)cc1` [Compound 332] returned an EC50 greater than 200 µM.
For `Cc1ccc(=S)n(-c2ccc(OC(C)C)cc2)c1` [Compound 334], the EC50 is greater than 200 µM.
On to `Cc1ccc(=S)n(-c2ccc(F)cc2)c1` [Compound 336], for which the concentration for a half-maximal effect (EC50) was greater than 200 µM.
`Cc1ccc(=S)n(-c2cccc(F)c2)c1` [Compound 338] yielded an EC50 greater than 200 µM.
`O=c1ccc(-c2cncnc2)cn1-c1ccc(F)cc1` [Compound 344] came in with an EC50 greater than 200 µM.
The figure for `O=c1ccc(-c2cncnc2)cn1-c1cccc(F)c1` [Compound 345] is greater than 200 µM; for `O=c1ccc(-c2cncnc2)cn1-c1ccccc1F` [Compound 346] it is greater than 200 µM; for `O=c1ncc(-c2ccnnc2)cn1-c1ccc(OC(F)(F)F)cc1` [Compound 347] it is 50 to 200 µM.
Turning to `Cc1cc(C)c(=O)n(-c2ccccc2)c1` [Compound 349], the EC50 is greater than 200 µM.
As for `Cc1cc(-c2cnn(C)c2)cn(-c2ccc(OC(F)(F)F)cc2)c1=O` [Compound 352], the figure is 50 to 200 µM.
`O=c1cc2ccccc2cn1-c1ccccc1` [Compound 354] showed an EC50 of 50 to 200 µM.
The figure for `Cn1cc(-c2cnc(=O)n(-c3ccccc3)c2)cn1` [Compound 355] is greater than 200 µM; for `O=c1ncc(-c2ccc(F)cc2)cn1-c1ccccc1` [Compound 356] it is 50 to 200 µM.
Take `O=c1ncc(-c2ccc(F)cc2)cn1-c1ccc(OC(F)(F)F)cc1` [Compound 357]: the EC50 is greater than 200 µM.
Molecule `Cc1ccc(=O)n(-c2ccccc2)n1` [Compound 359] returned a 50% effective concentration (EC50) greater than 200 µM.
Turning to `Cn1cc(-c2ccc(=O)n(-c3ccccc3)n2)cn1` [Compound 361], the EC50 is greater than 200 µM.
The molecule `O=c1ccc(-c2ccc(F)cc2)nn1-c1ccc(OC(F)(F)F)cc1` [Compound 362] returned an EC50 greater than 200 µM.
For `Cn1cc(-c2ccc(=O)n(-c3ccc(OC(F)(F)F)cc3)n2)cn1` [Compound 363], the EC50 was greater than 200 µM.
`Cn1cc(-c2cnc(=O)n(-c3ccc(OC(F)(F)F)cc3)c2)cn1` [Compound 364]: the half-maximal effective concentration (EC50) was greater than 200 µM.
`O=C1NC=CCN1c1ccccc1` [Compound 365] yielded an EC50 greater than 200 µM.
Regarding `Cc1cc(=O)n(-c2ccccc2)cc1C` [Compound 366], the EC50 is greater than 200 µM.
As for `Cc1cc(=O)n(-c2ccc(OC(F)(F)F)cc2)cc1C` [Compound 367], the figure is greater than 200 µM; as for `Cc1cc(=O)n(-c2ccc(OC(F)(F)F)cc2)cc1C(F)(F)F` [Compound 368], greater than 200 µM; as for `CC(C)Oc1ccc(-n2cc(-c3cn[nH]c3)ccc2=O)cc1` [Compound 369], 50 to 200 µM.
Molecule `COc1ccc(-n2cc(-c3cn[nH]c3)ccc2=O)cc1` [Compound 370] registered an EC50 greater than 200 µM.
The figure for `O=c1ccc(-c2cn[nH]c2)cn1-c1ccc(Cl)cc1` [Compound 371] is greater than 200 µM; for `O=c1ccc(-c2cn[nH]c2)cn1-c1cccc(F)c1` [Compound 372] it is greater than 200 µM.
With `O=c1ccc(-c2cn[nH]c2)cn1-c1cccc(C(F)(F)F)c1` [Compound 373], the EC50 was greater than 200 µM.
`COc1cccc(-n2cc(-c3cn[nH]c3)ccc2=O)c1` [Compound 375] came in with an EC50 greater than 200 µM.
`O=c1ccc(-c2cn[nH]c2)cn1-c1ccc(F)cc1` [Compound 377] returned a half-maximal effective concentration (EC50) of 50 to 200 µM.
Molecule `COc1cccc(-n2cc(-c3c(C)n[nH]c3C)ccc2=O)c1` [Compound 378] registered an EC50 of 50 to 200 µM.
Regarding `Cc1n[nH]c(C)c1-c1ccc(=O)n(-c2ccc(F)cc2)c1` [Compound 379], the EC50 is greater than 200 µM.
In turn, `Cc1n[nH]c(C)c1-c1ccc(=O)n(-c2ccc(Cl)cc2)c1` [Compound 380] came in with an EC50 greater than 200 µM.
As to `Cc1n[nH]c(C)c1-c1ccc(=O)n(-c2cccc(F)c2)c1` [Compound 381], the concentration for a half-maximal effect (EC50) was greater than 200 µM.
`Cc1n[nH]c(C)c1-c1ccc(=O)n(-c2ccc(OC(C)C)cc2)c1` [Compound 382] yielded an EC50 of 50 to 200 µM.
In the case of `Cc1n[nH]c(C)c1-c1ccc(=O)n(-c2cccc(C(F)(F)F)c2)c1` [Compound 384], the EC50 lay in the range of 50 to 200 µM.
Consider `CC(C)n1cc(-c2ccc(=O)n(-c3ccccc3)c2)cn1` [Compound 388], for which the EC50 is greater than 200 µM.
As for `Cc1n[nH]c(C)c1-c1ccc(=O)n(-c2ccncc2)c1` [Compound 390], the EC50 is greater than 200 µM.
As for `O=c1c2c(ccn2Cc2ccccc2)c(-c2ccc(F)cc2)cn1-c1ccc(OC(F)(F)F)cc1` [Compound 392], the EC50 was greater than 200 µM.
The molecule `Cn1cc(-c2cn(-c3ccc(OC(F)(F)F)cc3)c(=O)c3c2OCC(=O)N3)cn1` [Compound 393] displayed an EC50 greater than 200 µM.
Take `Cn1cc(-c2cn(-c3ccc(Cl)cc3)c(=O)c3nccnc23)cn1` [Compound 397]: the EC50 is greater than 200 µM.
Consider `Cn1cc(-c2cn(-c3ccc(C#N)cc3)c(=O)c3nccnc23)cn1` [Compound 398], for which the EC50 is greater than 200 µM.
With `N#Cc1cc(=O)n(-c2ccc(OC(F)(F)F)cc2)cc1-c1ccc(F)cc1` [Compound 401], the EC50 is greater than 200 µM.
On to `Cn1cc(-c2cn(-c3ccc(OC(F)(F)F)cc3)c(=O)cc2Oc2ccccc2F)cn1` [Compound 408], for which the EC50 is greater than 200 µM.
`Cn1cc(-c2cn(-c3ccc(OC(F)(F)F)cc3)c(=O)cc2Oc2cccc(F)c2)cn1` [Compound 409] yielded an EC50 of less than 50 µM.
On to `Cn1cc(-c2cn(-c3ccc(OC(F)(F)F)cc3)c(=O)cc2Oc2ccc(Cl)cc2)cn1` [Compound 412], for which the EC50 is greater than 200 µM.
In turn, `CCOc1ccc(-n2cc(-c3ccc4ocnc4c3)c(C)cc2=O)c(C)c1` [Compound 420] gave an EC50 of 50 to 200 µM.
Consider `Cc1cc(=O)n(-c2ccc(Cl)cc2)cc1-c1ccc2scnc2c1` [Compound 421], for which the EC50 is 50 to 200 µM.
`Cc1cc(=O)n(-c2ccc(Cl)cc2)cc1-c1ccc2ocnc2c1` [Compound 422] displayed an EC50 greater than 200 µM.
`Cc1cc(=O)n(-c2ccc(OC(F)(F)F)cc2)cc1-c1cccc2c1OCC(=O)N2` [Compound 423] gave an EC50 greater than 200 µM.
The figure for `Cc1cc(=O)n(-c2ccc(OC(F)(F)F)cc2)cc1-c1cccc2c1NC(=O)CO2` [Compound 426] is greater than 200 µM; for `Cc1cc(=O)n(-c2ccc(OC(F)(F)F)cc2)cc1-c1cccc2c1N(C)C(=O)CO2` [Compound 427] it is greater than 200 µM.
Regarding `Cc1cc(=O)n(-c2ccc(OC(F)(F)F)cc2)cc1-c1ccc2[nH]c(=O)oc2c1` [Compound 429], the concentration for a half-maximal effect (EC50) was greater than 200 µM.
As to `CCOc1ccc(-n2cc(-c3ccc(F)cc3)ccc2=O)c(C)c1` [Compound 438], the EC50 is greater than 200 µM.
The molecule `Cc1ccccc1-n1cc(-c2cnn(C)c2)ccc1=O` [Compound 439] had an EC50 greater than 200 µM.
On to `Cc1ccc(F)c(-c2ccccc2)c1` [Compound 440], for which the EC50 is greater than 200 µM.
Regarding `Cc1cc(=O)n(-c2ccc(OC(F)(F)F)cc2C)cc1-c1cnn(C)c1` [Compound 442], the EC50 was greater than 200 µM.
